Data as given in article PMC12133300, “The C-terminal structure of the N^6-methyladenosine deaminase YerA and its role in deamination” (Biochemical Journal, 2025).

Tests used:
YerA (Bsu06560) [1] = target: T1, YerA (Bsu06560) (Bacillus subtilis, UniProt O34909); experiment: thermal shift assay (SYPRO Orange); format: binding; details: apo-YerA (without metal reconstitution) 15 uM, 3 mM ligand
T1 construct: full-length (Met1-Arg580), pET-28a(+), E. coli BL21(DE3), N-terminal His-tag cleaved by PreScission protease; monomer; assayed as apo or metal-reconstituted form
T1 sequence (O34909 whole entry): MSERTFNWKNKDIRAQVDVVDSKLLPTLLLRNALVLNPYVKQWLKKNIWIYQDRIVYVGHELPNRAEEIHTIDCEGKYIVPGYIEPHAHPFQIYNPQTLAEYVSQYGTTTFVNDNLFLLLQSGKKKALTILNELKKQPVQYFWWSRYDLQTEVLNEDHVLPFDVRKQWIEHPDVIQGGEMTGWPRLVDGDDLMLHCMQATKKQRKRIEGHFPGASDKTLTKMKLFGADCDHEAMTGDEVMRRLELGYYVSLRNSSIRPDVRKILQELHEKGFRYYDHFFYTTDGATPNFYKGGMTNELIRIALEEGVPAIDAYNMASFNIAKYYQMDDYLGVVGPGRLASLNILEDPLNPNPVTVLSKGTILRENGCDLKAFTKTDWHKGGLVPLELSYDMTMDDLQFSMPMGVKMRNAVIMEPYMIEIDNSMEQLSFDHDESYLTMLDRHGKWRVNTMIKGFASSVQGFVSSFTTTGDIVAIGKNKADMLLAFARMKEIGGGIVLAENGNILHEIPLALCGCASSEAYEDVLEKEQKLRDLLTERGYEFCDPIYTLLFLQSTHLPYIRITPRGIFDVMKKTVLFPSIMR

YerA (Bsu06560) [2] = target: T1, YerA (Bsu06560); experiment: LC-Q-TOF-MS detection of inosine product; format: biochemical; details: metal-reconstituted holoenzyme, 5 h, 37 °C, 5 mM ligand; apo form without reconstitution inactive

Compound: CNc1ncnc2c1ncn2[C@@H]1O[C@H](CO)[C@@H](O)[C@H]1O [N^6-mAdo, N^6-methyladenosine]
- Tm shift (YerA (Bsu06560) [1]): 3 °C
- LC-Q-TOF-MS detection of inosine product (YerA (Bsu06560) [2]): YerA deaminated the favored substrate N^6-mAdo to Ino after a 5-h reaction
